Assay results from patent US9370189B2, “Controlling Pseudomonas aeruginosa persister cells with GM-CSF” (priority 2012, dated 2016).

What was measured:
[1] = test system: planktonic cells of PDO300; test: Synergistic effect of GM-CSF, tobramycin and alginate lyase on planktonic cells of PDO300; format: cell-based, Pseudomonas aeruginosa
Excerpt: This Example describes the use of alginate lyase as an enzyme to break down the extra alginate in order to understand the effect of the presence of alginate in PDO300 on the GM-CSF and antibiotic treatment.
To improve the effects of GM-CSF and antibiotics on the alginate overproducing PDO300, alginate lyase was used as an enzyme to break down the extra alginate. Alginate lyase is an enzyme which depolymerizes the alginate polymer by […] reaction. The alginate lyase used in the experiment was alginate lyase from Flavobacterium sp. (Sigma, catalog no. A1603-100MG). The experimental method was similar as mentioned above for the combined effect of GM-CSF and antibiotic. The alginate lyase was added as 0.05 mg/mL.
In brief, the experiment was performed in exponential phase with an optical density at 600 nm (OD600) of 0.3 to 0.4. After preparing an overnight culture of the tested strain in 25 ml LB medium, a subculture was prepared with an OD600 of 0.01 in 50 mL LB medium. The subculture was incubated at 37° C. with shaking at 200 rpm for 3-4 h, till OD600 of 0.3 to 0.4 was reached. The exponential phase subculture was then divided equally into two centrifuge tubes. The subcultures were washed twice with 0.85% NaCl buffer by vortexing and then centrifuging at 4° C., 8000 rpm for 10 min each time. The washed subcultures were resuspended in 25 mL 0.85% NaCl buffer and vortexed gently for 1 min. One of the subculture was selected for isolation of persisters by adding 200 μg/mL ciprofloxacin. After adding the antibiotic, the subculture was incubated at 37° C. with shaking at 200 rpm for 3.5 h. The other subculture was used to quantify the total number of viable cells.
For testing the direct impact of GM-CSF on the total viable cells, 1 mL of the subculture was added in 24 microcentrifuge tubes; 12 were control and the other 12 were GM-CSF treatment samples. In the treatment samples, GM-CSF was added to a concentration of 2.43 pg/mL. The control samples were supplemented with the same concentration of PBS and BSA as present in 2.43 pg/mL GM-CSF samples. […]

whole cells of E. coli = test: GM-CSF binding assay to bacterial whole cells (slot blot immunoblotting); design: species or system Escherichia coli; conditions: PBS, room temperature, 2 h, anti-rhGM-CSF immunoblot (FIG. 21)
Protocol: This Example describes experiments conducted to determine the capability of GM-CSF to bind to whole cells of P. aeruginosa and E. coli. In brief, bacteria harvested at stationary phases of growth were washed with PBS and adjusted to OD600 of 0.4 with PBS to ensure that an equal amount of cells was used for all GF-CSF binding tests. Suspensions of bacteria (10^6 CFU) were then incubated with and without different amount of recombinant human GM-CSF (rhGM-CSF, R&D systems) in a 40 μL volume at room temperature for 2 hours. After incubation, the cell suspension was centrifuged to separate supernatant (comprising buffer and unbound GM-CSF) and pellet (comprising cell and bound GM-CSF, if any), followed by the addition of 10 mM EDTA and boiling for 30 minutes to inactivate bacterial alkaline phosphatase activity. As control, PBS buffer with GM-CSF were processed in the similar manner. All the samples were then applied to Slot Blot (BioRad) for immunoblotting experiments. Anti-rhGMCSF developed in mice (Human GM-CSF MAb, Mouse IgG1, R&D system) was used as first antibody; Alkaline Phosphatase conjugated with Anti-mouse IgG was used to detect the binding of GM-CSF with BCIP/NBT (Promega) as substrates.

GM-CSF: granulocyte macrophage-colony stimulating factor, a cytokine secreted by macrophages; recombinant human GM-CSF (R&D systems) in binding tests
persisters changed by ([1]; planktonic PDO300, 2.43 pg/mL GM-CSF and 50 μg/mL tobramycin): −63.6±5.4%
persisters changed by ([1]; planktonic PDO300, 2.43 pg/mL GM-CSF, 50 μg/mL tobramycin and 0.05 mg/mL Alginate lyase): −74.1±3.3%
persisters changed by ([1]; planktonic cells (Example on PDO300; sentence prints PAO1), 2.43 pg/mL GM-CSF alone): −15.0±4.2%
binding to whole cells (whole cells of E. coli): not
